In PubChem BioAssay AID588626 (NMMLSC, 2011):
Calls of active or inactive are those of the source.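 How the source made its calls: active means half-effect potency at or under 10 µM with a response span of at least 30% after curve fit checks such as Hill slope 0.5 to 2; inactive means the rest.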

Molecular target: Cell division control protein 42 homolog (Homo sapiens) (UniProt P60953)
Test: inhibitors of wildtype Cdc42 GTP binding, SAR follow-up, biochemical, bead multiplex, flow cytometry, round 2 (AID 588626)
Conditions: Bead-based flow cytometry, Bodipy-FL-GTP binding, EDTA buffer; for % response (GTP binding remaining): at 100 µM (top of the series)

Cell division control protein 42 homolog (Homo sapiens), sequence (P60953 whole entry, looked up): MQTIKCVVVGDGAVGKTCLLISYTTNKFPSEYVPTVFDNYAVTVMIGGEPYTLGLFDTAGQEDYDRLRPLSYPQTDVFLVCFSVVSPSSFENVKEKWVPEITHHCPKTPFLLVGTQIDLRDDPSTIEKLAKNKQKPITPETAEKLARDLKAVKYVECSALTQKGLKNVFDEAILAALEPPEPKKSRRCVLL

Row | SMILES | EC50 [µM] | % response (GTP binding remaining)
1 | CC1(C)Cc2c(sc(NC(=S)NC(=O)c3ccccc3F)c2C(=O)O)CO1 | 7.37 | –
2 | COc1ccccc1C(=O)NC(=S)Nc1sc2c(c1C(=O)O)CC(C)(C)OC2 | – | inactive
3 | CC1(C)Cc2c(sc(NC(=S)Nc3ccccc3)c2C(=O)O)CO1 | – | inactive
4 | CC1(C)Cc2c(sc(NC(=S)NC(=O)c3ccc(Br)cc3)c2C(=O)O)CO1 | – | inactive
5 | CC1(C)Cc2c(sc(NC(=S)NC(=O)c3ccc(F)cc3)c2C(=O)O)CO1 | – | inactive
6 | O=C(NC(=S)Nc1sc2c(c1C(=O)O)CC1(CCCC1)OC2)c1ccccc1 | – | inactive
7 | Cc1ccccc1C(=O)NC(=S)Nc1sc2c(c1C(=O)O)CC(C)(C)OC2 | 2.66 | –
8 | CC1(C)Cc2c(sc(NC(=O)NC(=O)c3ccccc3)c2C(=O)O)CO1 | – | inactive
9 | CC1(C)Cc2c(sc(NC(=S)NC(=O)c3ccco3)c2C(=O)O)CO1 | – | inactive
10 | CC(C)(C)C1Cc2c(sc(NC(=S)NC(=O)c3ccccc3)c2C(=O)O)CO1 (stereo not drawn) | 1.57 | –
11 | COc1ccc(C(=O)NC(=S)Nc2sc3c(c2C(=O)O)CC(C)(C)OC3)cc1 | – | inactive
12 | Cc1cccc(C(=O)NC(=S)Nc2sc3c(c2C(=O)O)CC(C)(C)OC3)c1 | 5.87 | –
13 | CC1(C)CCc2sc(NC(=S)NC(=O)c3ccccc3)c(C(=O)O)c2C1 | – | inactive
14 | CC1(C)Cc2c(sc(NC(=S)NC(=O)C3CCCCC3)c2C(=O)O)CO1 | 2.64 | –
15 | CC1Cc2c(sc(NC(=S)NC(=O)c3ccccc3)c2C(=O)O)CO1 (stereo not drawn) | 17.8 | –
16 | Cc1ccc(C(=O)NC(=S)Nc2sc3c(c2C(=O)O)CC(C)(C)OC3)cc1 | 0.528 | –
17 | CC1(C)Cc2c(sc(NC(=S)NC(=O)c3cccc(F)c3)c2C(=O)O)CO1 | – | inactive
18 | CC1(C)Cc2c(sc(NC(=S)NC(=O)c3ccccc3Br)c2C(=O)O)CO1 | – | inactive
19 | CC1(C)Cc2c(sc(NC(=S)NC(=O)c3cccc(Br)c3)c2C(=O)O)CO1 | 19.5 | –
20 | COc1cccc(C(=O)NC(=S)Nc2sc3c(c2C(=O)O)CC(C)(C)OC3)c1 | – | inactive
21 | CCC1(C)Cc2c(sc(NC(=S)NC(=O)c3ccccc3)c2C(=O)O)CO1 (stereo not drawn) | – | inactive
22 | O=C(NC(=S)Nc1sc2c(c1C(=O)O)CCOC2)c1ccccc1 | – | inactive
23 | CC1(C)Cc2c(sc(NC(=S)NC(=O)c3cccs3)c2C(=O)O)CO1 | – | inactive
